Laboratory results taken from PubChem BioAssay (NCI).
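How tested: cells in 96-well plates exposed to compound for 48 hours at five concentrations. GI50 is the concentration that inhibits growth by half. TGI: concentration producing complete growth inhibition.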

Key:
Test in all cases: NCI-60 cell line screen, 48 h
[1] = system: LOX IMVI melanoma
[2] = system: IGROV1 ovarian
[3] = system: SNB-19 CNS
[4] = system: HCT-116 colon
[5] = system: SNB-75 CNS
[6] = system: SF-539 CNS
[7] = system: COLO 205 colon
[8] = system: MDA-MB-435
[9] = system: HCC-2998 colon
[10] = system: HOP-92 NSCLC
[11] = system: OVCAR-3 ovarian
[12] = system: UACC-257 melanoma
[13] = system: NCI/ADR-RES ovarian
[14] = system: OVCAR-8 ovarian
[15] = system: OVCAR-4 ovarian
[16] = system: HL-60(TB) leukemia
[17] = system: A549 NSCLC
[18] = system: A498 renal
[19] = system: SK-MEL-28 melanoma
[20] = system: TK-10 renal
[21] = system: NCI-H460 lung
[22] = system: HT29 colon
[23] = system: CAKI-1 renal
[24] = system: SK-OV-3 ovarian
[25] = system: MCF7 breast
[26] = system: HCT-15 colon
[27] = system: SK-MEL-2 melanoma
[28] = system: HOP-62 NSCLC
[29] = system: SN12C renal
[30] = system: ACHN renal
[31] = system: K-562 leukemia
[32] = system: CCRF-CEM leukemia
[33] = system: SW-620 colon
[34] = system: U251 CNS
[35] = system: BT-549 breast
[36] = system: SF-268 CNS
[37] = system: NCI-H23 lung
[38] = system: RXF 393 renal
[39] = system: SF-295 CNS
[40] = system: 786-0 renal
[41] = system: RPMI-8226 leukemia
[42] = system: MOLT-4 leukemia
[43] = system: UO-31 renal
[44] = system: MDA-MB-231 breast
[45] = system: T-47D breast
[46] = system: SR leukemia
[47] = system: NCI-H522 lung
[48] = system: M14 melanoma
[49] = system: MALME-3M melanoma
[50] = system: HS 578T breast
[51] = system: DU-145 prostate
[52] = system: EKVX NSCLC
[53] = system: OVCAR-5 ovarian
[54] = system: NCI-H226 lung
[55] = system: SK-MEL-5 melanoma
[56] = system: KM12 colon

SMILES: C=C1C[C@@H]2O[C@H]3[C@H]4[C@@H](CC[C@@](C)(OC(=O)CCC)[C@H]42)[C@@H](C)C(=O)O[C@@]3(C)CC[C@H]1OO
- GI50 [1]: 15.4 µM
- TGI [1]: 28.7 µM
- GI50 [2]: 17.8 µM
- TGI [2]: 35.6 µM
- GI50 [3]: 53.8 µM
- TGI [3]: > 100 µM
- GI50 [4]: 24.3 µM
- TGI [4]: 54.6 µM
- GI50 [5]: 20.5 µM
- TGI [5]: 44.6 µM
- GI50 [6]: 21 µM
- TGI [6]: 41.1 µM
- GI50 [7]: 21.3 µM
- TGI [7]: 37.4 µM
- GI50 [8]: 17 µM
- TGI [8]: 33.1 µM
- GI50 [9]: 15.9 µM
- TGI [9]: 29.4 µM
- GI50 [10]: 13.3 µM
- TGI [10]: 26 µM
- GI50 [11]: 13.9 µM
- TGI [11]: 29.2 µM
- GI50 [12]: 26.2 µM
- TGI [12]: 76.7 µM
- GI50 [13]: 16.9 µM
- TGI [13]: 31.5 µM
- GI50 [14]: 22.6 µM
- TGI [14]: 51.6 µM
- GI50 [15]: 19.5 µM
- TGI [15]: 40.2 µM
- GI50 [16]: 12.2 µM
- TGI [16]: 28.1 µM
- GI50 [17]: 18.5 µM
- TGI [17]: 34.4 µM
- GI50 [18]: > 100 µM
- TGI [18]: > 100 µM
- GI50 [19]: 20 µM
- TGI [19]: 35.4 µM
- GI50 [20]: 26.1 µM
- TGI [20]: 49.4 µM
- GI50 [21]: 19.3 µM
- TGI [21]: 35.8 µM
- GI50 [22]: 16.9 µM
- TGI [22]: 33.6 µM
- GI50 [23]: 4.8 µM
- TGI [23]: 19.1 µM
- GI50 [24]: > 100 µM
- TGI [24]: > 100 µM
- GI50 [25]: 20.5 µM
- TGI [25]: 38.8 µM
- GI50 [26]: 16.2 µM
- TGI [26]: 29.7 µM
- GI50 [27]: 52.2 µM
- TGI [27]: > 100 µM
- GI50 [28]: 25.7 µM
- TGI [28]: 55.3 µM
- GI50 [29]: 13.7 µM
- TGI [29]: 26.5 µM
- GI50 [30]: 17.3 µM
- TGI [30]: 31.1 µM
- GI50 [31]: 1790 nM
- TGI [31]: 3.28 µM
- GI50 [32]: 4.81 µM
- TGI [32]: 14.8 µM
- GI50 [33]: 19.6 µM
- TGI [33]: 37.1 µM
- GI50 [34]: 16.5 µM
- TGI [34]: 30.1 µM
- GI50 [35]: 36 µM
- TGI [35]: > 100 µM
- GI50 [36]: 12.8 µM
- TGI [36]: 26 µM
- GI50 [37]: 16.9 µM
- TGI [37]: 30.6 µM
- GI50 [38]: 27.6 µM
- TGI [38]: 88.6 µM
- GI50 [39]: 17.8 µM
- TGI [39]: 36.1 µM
- GI50 [40]: > 100 µM
- TGI [40]: > 100 µM
- GI50 [41]: 14 µM
- TGI [41]: 28.8 µM
- GI50 [42]: 11 µM
- TGI [42]: 23 µM
- GI50 [43]: 17.9 µM
- TGI [43]: 33.7 µM
- GI50 [44]: 17.9 µM
- TGI [44]: 33.2 µM
- GI50 [45]: 21.4 µM
- TGI [45]: 40 µM
- GI50 [46]: 5.48 µM
- TGI [46]: 18.4 µM
- GI50 [47]: 18.2 µM
- TGI [47]: 36.5 µM
- GI50 [48]: 23.7 µM
- TGI [48]: 45.3 µM
- GI50 [49]: 18 µM
- TGI [49]: 37.1 µM
- GI50 [50]: > 100 µM
- TGI [50]: > 100 µM
- GI50 [51]: 18 µM
- TGI [51]: 32.8 µM
- GI50 [52]: 27.7 µM
- TGI [52]: 70.8 µM
- GI50 [53]: > 100 µM
- TGI [53]: > 100 µM
- GI50 [54]: 17 µM
- TGI [54]: 32.2 µM
- GI50 [55]: 17.8 µM
- TGI [55]: 32.8 µM
- GI50 [56]: 16.4 µM
- TGI [56]: 30.9 µM
